According to patent US5519001A, “CETP inhibitor polypeptide antibodies against the synthetic polypeptide and prophylactic and therapeutic anti-atherosclerosis treatments” (Southwest Foundation for Biomedical Research, priority 1995, dated 1996):
Blank lines part the entries; values can stand above or below the molecule they belong to. Ends that are not written are not given here.

Tests used:
CETP = experiment: Cholesteryl ester transfer assay (3H CE-HDL to VLDL+LDL, baboon LPDS as CETP source); type: biochemical; conditions: for inhibitory activity of CETP: in vitro, result in words; for effect on transfer of CE from HDL to VLDL+LDL: electroeluted from gels, increasing concentrations, lipoproteins from low HDL1 baboons
Procedure: The CE transfer activity of a sample was assayed by a modification of a procedure described previously (Kushwaha et al, (1986), supra). Briefly, ^3 H CE-labeled HDL3 containing 50-100 μg of CE from low HDL1 baboons was incubated with VLDL+LDL containing 100-300 μg CE in the presence of LPDS. The acceptor lipoproteins and the LPDS were obtained from low HDL1 baboon plasma (chow diet). In some cases, the HDL3 was obtained from high HDL1 baboons maintained on the HCHF diet. The incubations were carried out at 4° C. (control) and 37° C. for 4-6 hrs, and terminated by placing the samples on ice. The assay mixture was then ultracentrifuged to separate VLDL+LDL having a d>1.040 g/ml, and the radioactivity in the lipoproteins was counted as described previously (Kushwaha et al, (1986), supra). Any difference observed in the radioactivity transferred from HDL to VLDL+LDL at 4° C. and 37° C. was attributed to CETP activity in the LPDS. Time course experiments gave a linear response up to 7 hrs. Similarly, the CETP activity was linear with increasing LPDS, up to 140 μl LPDS, which was derived from an equivalent volume of plasma. The polypeptide of the invention, and synthetic fragments thereof were added to the reaction mixture to determine their CETP inhibitory activities, along with an appropriate synthetic control peptide. The percent difference between the control experiment and the assay with inhibitor peptide was expressed as the inhibitor activity. A CE transfer assay as described in Example 4 above was conducted using HDL1 baboon plasma, ^3 H HDL, and the VLDL+LDL carriers, in the presence of CETP enzyme to mediate the exchange. The reactions were conducted at 37° C. and at 4° C. (control) in duplicate.

Human CETP = molecular target: T1, Human CETP (Homo sapiens, UniProt P11597); experiment: Inhibition of human CETP by synthetic CETP inhibitor peptide (human LPDS); type: biochemical; conditions: 100 μg peptide, HDL 10 μg, VLDL+LDL 50 μg, CETP 200 μl, 37 °C
T1 construct: To isolate human CETP, blood (5-10 ml) from human subjects was obtained in tubes containing EDTA; from tissue; host or cells: human plasma of individual donors, supernatant after heparin/MnCl2 and dextran sulfate precipitation of lipoproteins
T1 sequence (P11597 18-493): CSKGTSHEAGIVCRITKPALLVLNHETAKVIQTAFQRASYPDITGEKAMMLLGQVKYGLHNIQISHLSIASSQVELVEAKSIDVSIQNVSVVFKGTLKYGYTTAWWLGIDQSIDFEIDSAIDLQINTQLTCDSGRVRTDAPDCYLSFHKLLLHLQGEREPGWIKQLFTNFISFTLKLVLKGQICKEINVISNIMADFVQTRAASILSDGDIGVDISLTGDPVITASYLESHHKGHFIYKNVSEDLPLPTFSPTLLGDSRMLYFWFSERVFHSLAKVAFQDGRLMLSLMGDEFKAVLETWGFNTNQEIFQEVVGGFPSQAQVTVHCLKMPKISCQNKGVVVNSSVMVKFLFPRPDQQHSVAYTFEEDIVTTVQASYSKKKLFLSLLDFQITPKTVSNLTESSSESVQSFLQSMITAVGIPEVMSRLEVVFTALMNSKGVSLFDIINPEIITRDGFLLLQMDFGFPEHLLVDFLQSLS

[1] = molecular target: baboon plasma cholesteryl ester transfer protein (CETP), supplied as lipoprotein-deficient serum (LPDS, d>1.21 g/ml) from low HDL1 baboon plasma (baboon (papio sp.))

Molecule: amino acids 1 to 10: N-terminal fragment of SEQ. ID. NO:1, amino acids 1 to 10 (DVSSALDKLK)
inhibitory activity of CETP (CETP): active as inhibitors of CETP

Molecule: amino acids 1 to 20: N-terminal fragment of SEQ. ID. NO:1, amino acids 1 to 20 (DVSSALDKLKEFGNTLEDKA)
inhibitory activity of CETP (CETP): active as inhibitors of CETP

Molecule: amino acids 15 to 30: intermediate fragment of SEQ. ID. NO:1, amino acids 15 to 30 (TLEDKAWEVINRIKQS)
inhibitory activity of CETP (CETP): active as inhibitors of CETP

Molecule: amino acids 16 to 36: C-terminal fragment of SEQ. ID. NO:1, amino acids 16 to 36 (21 amino acids) (LEDKAWEVINRIKQSEFPAKT)
inhibitory activity of CETP at 50 μg (CETP; 50 μg peptide): limited inhibitory activity

Inhibition (%) (Human CETP; human CETP source AB (S.N. 6)): 60%
Inhibition (%) (Human CETP; human CETP source EJ (S.N. 3)): 85%
Inhibition (%) (Human CETP; human CETP source EW (S.N. 11)): 71%
Inhibition (%) (Human CETP; human CETP source GL (S.N. 7)): 85%
Inhibition (%) (Human CETP; human CETP source KC (S.N. 8)): 83%
Inhibition (%) (Human CETP; human CETP source KR (S.N. 5)): 82%
Inhibition (%) (Human CETP; human CETP source ML (S.N. 12)): 77%
Inhibition (%) (Human CETP; human CETP source RK (S.N. 2)): 72%
Inhibition (%) (Human CETP; human CETP source SH (S.N. 1)): 60%
Inhibition (%) (Human CETP; human CETP source TH (S.N. 9)): 86%
Inhibition (%) (Human CETP; human CETP source UM (S.N. 10)): 90%
Molecule: APDVSSALDKLKEFGNTLEDKAWEVINRIKQSEFPAKT [SEQ. ID. NO:2]

Molecule: SEQ. ID. NO:1: synthetic 36 amino acid peptide, sequence of the 4 kD baboon CETP inhibitor, common with N-terminal fragment of apo C-I (DVSSALDKLKEFGNTLEDKAWEVINRIKQSEFPAKT)
inhibition of CE transfer from HDL to VLDL and LDL (CETP; 50 μg peptide, lipoproteins of low HDL1 baboons): significantly (p<0.01) inhibited
inhibitory activity of CETP (CETP): inhibitory of CETP

Molecule: amino acids 28 to 36: C-terminal fragment of SEQ. ID. NO:1, amino acids 28 to 36 (9 amino acids) (KQSEFPAKT)
inhibitory activity of CETP at 50 μg (CETP; 50 μg peptide): limited inhibitory activity
activity inhibitory of CETP at 200 μg (CETP; 200 μg peptide, compared with the 36 amino acid peptide): approximately the same as that of the 36 amino acid peptide

Molecule: amino acids 1 to 15: N-terminal fragment of SEQ. ID. NO:1, amino acids 1 to 15 (DVSSALDKLKEFGNT)
inhibitory activity of CETP (CETP): active as inhibitors of CETP

Molecule: Albumin [reference compound]
effect on transfer of CE from HDL to VLDL+LDL (CETP): no effect

Molecule: 4 kD polypeptide: endogenous CETP inhibitor polypeptide of molecular weight 4,000 electroeluted from lipoproteins of high HDL1 baboons (DVSSALDKLKEFGNTLEDKAWEVINRIKQSEFPAKT)
effect on transfer of CE from HDL to VLDL+LDL (CETP): significantly inhibited CETP activity

Inhibition (%) of CETP-mediated cholesteryl ester transfer [1]: 52%
Molecule: APDVSSALDKLKEFGNTLEDKAWEVINRIKQSEFPAKT [synthetic CETP inhibitor peptide, baboon apo C-I terminal peptide with 38 amino acids (SEQ ID NO 2)]

Inhibition (%) of CETP-mediated cholesteryl ester transfer [1]: 60%
Molecule: TPDVSSALDKLKEFGNTLEDKARELISRIKQSELSAKM [synthetic CETP inhibitor peptide, human apo C-I terminal peptide with 38 amino acids (SEQ ID NO 3)]
